Measured values taken from ChEMBL document CHEMBL1150516, “Synthesis and biological activity of C-6 modified derivatives of the glucosidase inhibitor 1-deoxynojirimycin” (Bioorg Med Chem Lett, 1992).
Active and inactive are the calls of the source. No cut-off for these calls is given here.

How the values were obtained:
[1] = pKa value was determined; format: physicochemical
[2] = Competitive Inhibition constant on jack bean mannosidase; NI=No inhibition; conditions: Canavalia ensiformis
[3] = Competitive Inhibition constant on almonds beta Glucosidase; NI=No inhibition; conditions: Prunus dulcis
[4] = Percentase inhibition on glucosidase I of glycoprotein trimming from pig liver at 1 mM concentration; format: functional; conditions: Sus scrofa
Sus scrofa = species: Sus scrofa; test: Percentase inhibition on glucosidase I of glycoprotein trimming from pig liver at 2.5 mM concentration; NI=No inhibition; format: functional, tissue-based

pKa [1] | Activity [2] | Activity [3] | inhibition (Sus scrofa) | Compound | inhibition at 1000 µM [4] [%]
~6.5 |  |  |  | OC[C@H]1NC[C@H](O)[C@@H](O)[C@@H]1O [DUVOGLUSTAT] | 
 | inactive | inactive |  | CCO[C@@H]1CN[C@H](CO)[C@@H](O)[C@@H]1O | 
~6.5 |  |  | inactive | CCC(O)[C@H]1NC[C@H](O)[C@@H](O)[C@@H]1O (some centres undefined) | 50

Continued, molecule first:

Compound | pKa [1] | Activity [2] | Activity [3] | inhibition (Sus scrofa) | inhibition at 1000 µM [4] [%]
OC1CCN2C[C@H](O)[C@@H](O)[C@H](O)C12 (some centres undefined) | ~6.5 |  |  |  | 
OC[C@H]1NC[C@@H](F)[C@@H](O)[C@@H]1O |  | inactive | inactive |  | 
